Patent publication US20180243286A1, “Antibacterial compositions of a beta-lactamase inhibitor with a cephalosporin” (WOCKHARDT LIMITED, priority 2015, published 2018)

Key:
[1] = test system: K. pneumoniae H521 producing KPC, SHV and TEM beta-lactamase enzymes; test: Time kill study against clinical isolate of K. pneumoniae H521; type: cell-based; settings: for Bacterial count (Log10 CFU/ml) 0 hour: 0 hour (starting inoculum); for Change in Log10 CFU/ml over 0 hour count after 8 hours: positive = increase; for Effect on bacterial counts when used alone: throughout the duration of the study
Procedure: (§1) The killing effect of the combinations according to invention was studied by performing time kill studies. In a typical time kill study, the freshly grown cultures were diluted to the required cell density (initial starting inoculum) in Cation adjusted Muller Hinton broth medium (BD, USA). The antibacterial agents (either alone or in combination) at the required concentrations were added into the culture-containing medium. The samples were incubated under shaking condition (120 rpm) at 37° C. Enumeration of viable bacterial count was done every 2 hour by diluting in normal saline and plating on to the Tryptic Soya Agar plates (BD, USA). The plates were incubated for 24 hours to arrive at the viable bacterial count. The results are expressed in terms of log10 CFU per ml. In general, the decrease of 1 log10 CFU/ml corresponds to 90% killing of bacteria. Similarly, 2 log10 CFU/ml reductions indicates to 99% killing of bacteria and 3 log10 CFU/ml reductions is equal to 99.9% killing of bacteria.
K. pneumoniae H521 produces resistant KPC, SHV and TEM beta-lactamase enzymes.

[2] = test system: E. coli M50 producing CMY 6, DHA-1/2 beta-lactamase enzymes; test: Time kill study against clinical isolate of E. coli M50; type: cell-based; settings: for Bacterial count (Log10 CFU/ml) 0 hour: 0 hour (starting inoculum); for Effect on bacterial counts when used alone: throughout the duration of the study
Procedure: as §1
E. coli M50 produces resistant CMY 6, DHA-1/2 beta-lactamase enzymes.

[3] = agent alone 4 mcg/ml, negative = reduction

Structure (SMILES) | Bacterial count (Log10 CFU/ml) 0 hour ([1]; agent alone 4 mcg/ml) [Log10 CFU/ml] | Bacterial count (Log10 CFU/ml) 2 hour ([1]; agent alone 4 mcg/ml) [Log10 CFU/ml] | Bacterial count (Log10 CFU/ml) 4 hour ([1]; agent alone 4 mcg/ml) [Log10 CFU/ml] | Bacterial count (Log10 CFU/ml) 6 hour ([1]; agent alone 4 mcg/ml) [Log10 CFU/ml] | Bacterial count (Log10 CFU/ml) 8 hour ([1]; agent alone 4 mcg/ml) [Log10 CFU/ml] | Change in Log10 CFU/ml over 0 hour count after 8 hours ([1]; agent alone 4 mcg/ml) [Log10 CFU/ml] | Bacterial count (Log10 CFU/ml) 0 hour ([2]; agent alone 4 mcg/ml) [Log10 CFU/ml] | Bacterial count (Log10 CFU/ml) 2 hour ([2]; agent alone 4 mcg/ml) [Log10 CFU/ml] | Bacterial count (Log10 CFU/ml) 4 hour ([2]; agent alone 4 mcg/ml) [Log10 CFU/ml] | Bacterial count (Log10 CFU/ml) 6 hour ([2]; agent alone 4 mcg/ml) [Log10 CFU/ml] | Bacterial count (Log10 CFU/ml) 8 hour ([2]; agent alone 4 mcg/ml) [Log10 CFU/ml] | Change in Log10 CFU/ml over 0 hour count after 8 hours [2, 3] [Log10 CFU/ml] | Effect on bacterial counts when used alone [1] | Effect on bacterial counts when used alone [2] | further results
C=CC1=C(C(=O)O)N2C(=O)[C@@H](NC(=O)/C(=N\OCC(=O)O)c3csc(N)n3)[C@H]2SC1 [Cefixime] | 7.18 | 8.26 | 8.85 | 8.98 | 8.95 | 1.77 | 7.14 | 8.95 | 8.40 | 8.90 | 8.65 | 1.51 |  |  | 
COCC1=C(C(=O)O)N2C(=O)[C@@H](NC(=O)/C(=N\OC)c3csc(N)n3)[C@H]2SC1 [Cefpodoxime] | 7.18 | 8.60 | 8.74 | 8.93 | 8.81 | 1.63 | 7.14 | 8.18 | 8.88 | 8.95 | 8.40 | 1.26 |  |  | 
Nc1nc(/C(=C/CC(=O)O)C(=O)N[C@@H]2C(=O)N3C(C(=O)O)=CCS[C@H]23)cs1 [Ceftibuten] | 7.18 | 8.18 | 8.88 | 8.40 | 8.60 | 1.42 | 7.14 | 7.90 | 8.40 | 8.98 | 8.93 | 1.79 | did not reduce the bacterial counts | did not reduce the bacterial counts | 
CO/N=C(\C(=O)N[C@@H]1C(=O)N2C(C(=O)O)=C(COC(N)=O)CS[C@H]12)c1ccco1 [Cefuroxime] | 7.18 | 8.48 | 8.70 | 8.78 | 8.60 | 1.42 | 7.14 | 8.33 | 8.54 | 9.20 | 8.65 | 1.51 | did not reduce the bacterial counts | did not reduce the bacterial counts | 
NCCONC(=O)[C@@H]1CC[C@@H]2CN1C(=O)N2OS(=O)(=O)O [Compound of Formula (I), (2S,5R)—N-(2-aminoethoxy)-7-oxo-6-(sulfoxy)-1,6-diazabicyclo[3.2.1]octane-2-carboxamide] | 7.18 | 7.98 | 8 | 8.37 | 8.04 | 0.86 | 7.14 | 6.40 | 5.32 | 5.32 | 5.34 | −1.8 | did not reduce the bacterial counts | did not reduce the bacterial counts | 
C[C@@H](O)[C@H]1C(=O)N2C(C(=O)O)=C(SCCN=CN)C[C@H]12 [Imipenem] |  |  |  |  |  |  |  |  |  |  |  |  |  |  | Bacterial count (Log10 CFU/ml) 0 hour ([1]; 8 mcg/ml alone): 7.18 Log10 CFU/ml; Bacterial count (Log10 CFU/ml) 2 hour ([1]; 8 mcg/ml alone): 8.10 Log10 CFU/ml; Bacterial count (Log10 CFU/ml) 4 hour ([1]; 8 mcg/ml alone): 8.81 Log10 CFU/ml; Bacterial count (Log10 CFU/ml) 6 hour ([1]; 8 mcg/ml alone): 8.70 Log10 CFU/ml; Bacterial count (Log10 CFU/ml) 8 hour ([1]; 8 mcg/ml alone): 9.11 Log10 CFU/ml; Change in Log10 CFU/ml over 0 hour count after 8 hours ([1]; 8 mcg/ml alone): 1.93 Log10 CFU/ml; Bacterial count (Log10 CFU/ml) 0 hour ([2]; 1 mcg/ml alone): 7.14 Log10 CFU/ml; Bacterial count (Log10 CFU/ml) 2 hour ([2]; 1 mcg/ml alone): 4.25 Log10 CFU/ml; Bacterial count (Log10 CFU/ml) 4 hour ([2]; 1 mcg/ml alone): 4.60 Log10 CFU/ml; Bacterial count (Log10 CFU/ml) 6 hour ([2]; 1 mcg/ml alone): 6.04 Log10 CFU/ml; Bacterial count (Log10 CFU/ml) 8 hour ([2]; 1 mcg/ml alone): 7.34 Log10 CFU/ml; Change in Log10 CFU/ml over 0 hour count after 8 hours ([2]; 1 mcg/ml alone, positive = increase): 0.2 Log10 CFU/ml
